Experimental data reported in US12233161B1, “Lipids and lipid nanoparticle formulations” (LONGUIDE BIOPHARMA CORPORATION, priority 2024, dated 2025).

System: mice
Experiment: In vivo delivery of FLuc-mRNA lipid nanoparticles in mice, in vivo imaging (IVIS)
Conditions: for IVIS / % of organ targeting: Fluc-mRNA LNP, formulation, molar ratio and N/P as in the table; for organ targeting specificity (spleen or lung), in words: Table 3, Fluc-mRNA, various formulations
Procedure: After the preparation was completed, the preparation was injected intramuscularly (mice rectus femoris muscle of the thigh), intravenously (mice tail vein), or intraperitoneal injection or subcutaneous injection (subcutaneous on the back), with approximately 75 μL per mouse, for a total of 3 mice. After a certain time of injection, in vivo imaging (PerkinElmer, IVIS Lumina III) was performed. 10-15 minutes before imaging, 200 μL of 15 mg/mL D-Luciferin working solution was injected intraperitoneally, and the imaging analysis was performed using an in vivo imager.

Question: `CCCCCCCCC(CCCCCC)C(=O)NCCOC(=O)C(O)CN(CCCN(CC(O)C(=O)OCCNC(=O)C(CCCCCC)CCCCCCCC)CC(O)C(=O)OCCNC(=O)C(CCCCCC)CCCCCCCC)CCCN(CC(O)C(=O)OCCNC(=O)C(CCCCCC)CCCCCCCC)CC(O)C(=O)OCCNC(=O)C(CCCCCC)CCCCCCCC` (stereo not drawn) [Compound L0375] was tested. Which IVIS (route IM, organ not given) did it give?
Answer: 1.41E+05

Question: And the IVIS (route IV, organ not given)?
Answer: 3.72E+05

Question: Which results are given for `CCCCCCCCC(CCCCCC)C(=O)OCCCCNC(=O)C(O)CN(CCCN(C)CCCN(CC(O)C(=O)NCCCCOC(=O)C(CCCCCC)CCCCCCCC)CC(O)C(=O)NCCCCOC(=O)C(CCCCCC)CCCCCCCC)CC(O)C(=O)NCCCCOC(=O)C(CCCCCC)CCCCCCCC` (stereo not drawn) [Compound L0376]?
Answer: % of organ targeting (route IM, organ: liver): 30.06%; IVIS (route IM, organ: liver): 2.21E+05; % of organ targeting (route IM, organ: lung): 5.80%; IVIS (route IM, organ: lung): 4.27E+04; IVIS (route IM, organ: muscle): 2.06E+07; % of organ targeting (route IM, organ: spleen): 64.14%; IVIS (route IM, organ: spleen): 4.72E+05; IVIS (route IV, organ: body): 5.58E+07; % of organ targeting (route IV, organ: liver): 14.62%; IVIS (route IV, organ: liver): 1.64E+07; % of organ targeting (route IV, organ: lung): 20.78%; IVIS (route IV, organ: lung): 2.32E+07; % of organ targeting (route IV, organ: spleen): 64.60%; IVIS (route IV, organ: spleen): 7.23E+07; organ targeting specificity (spleen or lung), in words: strong targeting specificity to deliver to spleen

Question: With `CCCCCCCCC(CCCCCC)C(=O)OCCCCNC(=O)C(O)CCN(CCCN(C)CCN(CC(O)C(=O)NCCCCOC(=O)C(CCCCCC)CCCCCCCC)CC(O)C(=O)NCCCCOC(=O)C(CCCCCC)CCCCCCCC)C(O)C(=O)NCCCCOC(=O)C(CCCCCC)CCCCCCCC` (stereo not drawn) [Compound L0377] as the compound, how does the “% of organ targeting” value (route IM, organ: liver) read?
Answer: 35.08%

Question: What about the IVIS (route IM, organ: liver) of the same compound?
Answer: 1.59E+05

Question: What about the “% of organ targeting” value (route IM, organ: lung) of the same compound?
Answer: 6.58%

Question: What about the IVIS (route IM, organ: lung) of the same compound?
Answer: 2.98E+04

Question: What about the IVIS (route IM, organ: muscle) of the same compound?
Answer: 3.71E+07

Question: What about the “% of organ targeting” value (route IM, organ: spleen) of the same compound?
Answer: 58.34%

Question: What about the IVIS (route IM, organ: spleen) of the same compound?
Answer: 2.64E+05

Question: What about the IVIS (route IV, organ: body) of the same compound?
Answer: 1.81E+08

Question: What about the “% of organ targeting” value (route IV, organ: liver) of the same compound?
Answer: 38.23%

Question: What about the IVIS (route IV, organ: liver) of the same compound?
Answer: 6.08E+07

Question: What about the “% of organ targeting” value (route IV, organ: lung) of the same compound?
Answer: 4.20%

Question: And the IVIS (route IV, organ: lung)?
Answer: 6.67E+06

Question: What about the “% of organ targeting” value (route IV, organ: spleen) of the same compound?
Answer: 57.57%

Question: And the IVIS (route IV, organ: spleen)?
Answer: 9.15E+07

Question: What about the “organ targeting specificity (spleen or lung), in words” value of the same compound?
Answer: strong targeting specificity to deliver to spleen

Question: What does the source list for `CCCCCCCCC(CCCCCC)C(=O)OCCCCNC(=O)C(O)CN(CCCN(CC(O)C(=O)NCCCCOC(=O)C(CCCCCC)CCCCCCCC)CC(O)C(=O)NCCCCOC(=O)C(CCCCCC)CCCCCCCC)CCCN(CC(O)C(=O)NCCCCOC(=O)C(CCCCCC)CCCCCCCC)CC(O)C(=O)NCCCCOC(=O)C(CCCCCC)CCCCCCCC` (stereo not drawn) [Compound L0378]?
Answer: % of organ targeting (route IM, organ: liver): 37.15%; IVIS (route IM, organ: liver): 1.82E+05; % of organ targeting (route IM, organ: lung): 12.65%; IVIS (route IM, organ: lung): 6.19E+04; IVIS (route IM, organ: muscle): 3.09E+07; % of organ targeting (route IM, organ: spleen): 50.19%; IVIS (route IM, organ: spleen): 2.45E+05; IVIS (route IV, organ: body): 2.77E+08; % of organ targeting (route IV, organ: liver): 45.43%; IVIS (route IV, organ: liver): 5.93E+07; % of organ targeting (route IV, organ: lung): 0.60%; IVIS (route IV, organ: lung): 7.82E+05; % of organ targeting (route IV, organ: spleen): 53.97%; IVIS (route IV, organ: spleen): 7.04E+07; organ targeting specificity (spleen or lung), in words: strong targeting specificity to deliver to spleen

Question: What does the source list for `CCCCCCC(CCCCCC)C(=O)NCCNC(=O)C(O)CN(CCCN(C)CCCN(CC(O)C(=O)NCCNC(=O)C(CCCCCC)CCCCCC)CC(O)C(=O)NCCNC(=O)C(CCCCCC)CCCCCC)CC(O)C(=O)NCCNC(=O)C(CCCCCC)CCCCCC` (stereo not drawn) [Compound L0379]?
Answer: % of organ targeting (route IM, organ: liver): 35.55%; IVIS (route IM, organ: liver): 1.37E+06; % of organ targeting (route IM, organ: lung): 3.16%; IVIS (route IM, organ: lung): 1.22E+05; IVIS (route IM, organ: muscle): 2.68E+08; % of organ targeting (route IM, organ: spleen): 61.28%; IVIS (route IM, organ: spleen): 2.37E+06; IVIS (route IV, organ not given): 1.63E+09; organ targeting specificity (spleen or lung), in words: strong targeting specificity to deliver to spleen

Question: With `CCCCCCC(CCCCCC)C(=O)NCCNC(=O)C(O)CN(CCN(C)CCN(CC(O)C(=O)NCCNC(=O)C(CCCCCC)CCCCCC)CC(O)C(=O)NCCNC(=O)C(CCCCCC)CCCCCC)CC(O)C(=O)NCCNC(=O)C(CCCCCC)CCCCCC` (stereo not drawn) [Compound L0380] as the compound, how does the “% of organ targeting” value (route IM, organ: liver) read?
Answer: 61.06%

Question: And the IVIS (route IM, organ: liver)?
Answer: 3.14E+07

Question: What about the “% of organ targeting” value (route IM, organ: lung) of the same compound?
Answer: 1.54%

Question: And the IVIS (route IM, organ: lung)?
Answer: 7.90E+05

Question: And the IVIS (route IM, organ: muscle)?
Answer: 4.58E+08

Question: What about the “% of organ targeting” value (route IM, organ: spleen) of the same compound?
Answer: 37.40%

Question: What about the IVIS (route IM, organ: spleen) of the same compound?
Answer: 1.92E+07

Question: What about the IVIS (route IV, organ: body) of the same compound?
Answer: 7.98E+09

Question: What about the “% of organ targeting” value (route IV, organ: liver) of the same compound?
Answer: 96.36%

Question: And the IVIS (route IV, organ: liver)?
Answer: 2.14E+09

Question: And the “% of organ targeting” value (route IV, organ: lung)?
Answer: 0.40%

Question: What about the IVIS (route IV, organ: lung) of the same compound?
Answer: 8.80E+06

Question: What about the “% of organ targeting” value (route IV, organ: spleen) of the same compound?
Answer: 3.24%

Question: What about the IVIS (route IV, organ: spleen) of the same compound?
Answer: 7.18E+07

Question: What does the source list for `CCCCCCC(CCCCCC)C(=O)NCCNC(=O)C(O)CN(CCCN(CC(O)C(=O)NCCNC(=O)C(CCCCCC)CCCCCC)CC(O)C(=O)NCCNC(=O)C(CCCCCC)CCCCCC)CCCN(CC(O)C(=O)NCCNC(=O)C(CCCCCC)CCCCCC)CC(O)C(=O)NCCNC(=O)C(CCCCCC)CCCCCC` (stereo not drawn) [Compound L0381]?
Answer: IVIS (route IM, organ not given): 1.90E+07; IVIS (route IV, organ: body): 1.57E+08; % of organ targeting (route IV, organ: liver): 86.51%; IVIS (route IV, organ: liver): 8.07E+07; % of organ targeting (route IV, organ: lung): 0.46%; IVIS (route IV, organ: lung): 4.31E+05; % of organ targeting (route IV, organ: spleen): 13.03%; IVIS (route IV, organ: spleen): 1.22E+07
